Data from EP0956287B1, “3-ARYL-2-(1-SUBSTITUTED-4-PIPERIDINYL)-1(1-DI)OXO-3H-BENZO D]-ISOTHIAZOLE DERIVATIVES, THEIR PREPARATION AND THEIR USE AS MODULATORS OF NEUROTRANSMITTER FUNCTION” (Aventis Pharmaceuticals Inc., priority 1996, dated 1998).
Counter-ions that a name gives are not always drawn.

Experiments:
Format in all cases: biochemical
[1] = molecular target: T1, norepinephrine (NE) uptake (Rattus norvegicus, UniProt Q63380); assay: Inhibition of [3H]-norepinephrine uptake in rat whole brain or hypothalamic synaptosomes; details: [3H]-NE 50 nM
T1 construct: Either whole brain minus cerebella or hypothalamus is weighed and homogenized in 9 volumes of ice-cold 0.32 M sucrose; from tissue; host or cells: rat whole brain minus cerebella or hypothalamus, crude synaptosomal supernatant (S1)
T1 sequence (Q63380 1-617): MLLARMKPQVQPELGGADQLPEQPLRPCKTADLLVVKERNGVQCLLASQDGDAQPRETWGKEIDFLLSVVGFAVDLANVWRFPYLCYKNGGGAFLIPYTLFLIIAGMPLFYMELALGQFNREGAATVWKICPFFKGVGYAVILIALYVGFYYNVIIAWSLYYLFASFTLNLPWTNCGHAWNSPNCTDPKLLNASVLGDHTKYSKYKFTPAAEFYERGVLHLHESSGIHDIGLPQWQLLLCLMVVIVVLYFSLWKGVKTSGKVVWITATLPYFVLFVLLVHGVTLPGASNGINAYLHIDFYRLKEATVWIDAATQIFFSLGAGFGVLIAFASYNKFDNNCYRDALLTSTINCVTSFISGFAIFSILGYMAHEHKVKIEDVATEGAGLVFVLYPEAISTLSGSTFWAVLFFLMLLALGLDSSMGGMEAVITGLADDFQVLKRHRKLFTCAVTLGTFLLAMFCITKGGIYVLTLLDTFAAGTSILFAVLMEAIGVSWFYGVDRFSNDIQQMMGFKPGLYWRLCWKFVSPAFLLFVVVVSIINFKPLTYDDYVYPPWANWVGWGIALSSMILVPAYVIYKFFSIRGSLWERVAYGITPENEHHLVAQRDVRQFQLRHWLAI
Method: Inhibition of [^3H]-Norepinephrine Uptake in Rat Whole Brain or Hypothalamic Synaptosomes
This assay is used as a biochemical screen for potential antidepressants which block norepinephrine uptake.
(§1) A. Animals: Male CR Wistar rats (100-125 g).
(§2) 1. Krebs-Henseleit Bicarbonate Buffer, pH 7.4 (KHBB): Make a 1 liter batch, containing the following salts.
Aerate for 60 minutes with 95% O2/5% CO2, check pH (7.4±0.1); then add bovine serum albumin (Sigma cat#A-7906) 1 mg/ml. 2. 0.32M Sucrose: 21.9 g of sucrose, bring to 200 ml. 3. L(-)-Norepinephrine bitartrate is obtained from Sigma Chemical Co. A 0.1 mM stock solution is made up in 0.01 N HCl. This is used to dilute the specific activity of theradiolabeled NE. 4. Levo-[Ring-2,5,6-^3H]-Norepinephrine (40-50 Ci/mmol) is obtained from New England Nuclear. The final desired concentration of [^3H]-NE in the assay is 50 nM. The dilution factor is 0.8. Therefore, the KHBB is made up to contain 62.5 nM [^3H]-NE. Add to 100 ml of KHBB.
(§3) 5. For most assays, a 1 mM stock solution of the test compound is made up in a suitable solvent and serially diluted such that the final concentration in the assay ranges from 2 x 10^-8 to 2 x 10^-5 M. Seven concentrations are used for each assay. Higher or lower concentrations may be used depending on the potency of the compound.
(§4) Male Wistar rats are decapitated and the brain rapidly removed. Either whole brain minus cerebella or hypothalamus is weighed and homogenized in 9 volumes of ice-cold 0.32 M sucrose using a Potter-Elvejhem homogenizer. Homogenization should be done with 4-5 up and down strokes at medium speeds to minimize synaptosome lysis. TH homogenate is centrifuged at 1000 g for 10 minutes at 0° 4°C. The supernatant (S1) is decanted and is used for uptake experiments.
• 800 µl KHBB [^3H]-NE • 20 µl Vehicle or appropriate drug concentration • 200 µl Tissue suspension
Tubes are incubated at 37°C, under a 95% O2/5% CO2 atmosphere for 5 minutes. For each assay, 3 tubes are incubated with 20 µl of vehicle at 0°C in a ice bath. After incubation all tubes are immediately centrifuged at 4000 g for 10 minutes. The supernatant fluid is aspirated and the pellets dissolved by adding 1 ml of solubilizaer (Triton® X-100 + 50% EtOH, 1:4 v/v). The tubes are vigorously shaken decanted into scientillation vials, and counted in 10 ml of Liquiscint® scintillation countering cocktail. Active uptake is the difference between cpm at 37°C. and 0°C. The percent inhibition at each drug concentration is the mean of three determinations IC50 values are derived from log-probit analysis.

[2] = molecular target: T2, serotonin (5HT) uptake (Rattus norvegicus, UniProt P31652); assay: Inhibition of [3H]-serotonin uptake in rat whole brain synaptosomes; details: [3H]-5 HT 50 nM
T2 construct: Whole brain minus cerebella is weighed and homogenized in 9 volumes of ice-cold 0.32 M sucrose; from tissue; host or cells: rat whole brain minus cerebella, crude synaptosomal supernatant (S1)
T2 sequence (P31652 whole entry): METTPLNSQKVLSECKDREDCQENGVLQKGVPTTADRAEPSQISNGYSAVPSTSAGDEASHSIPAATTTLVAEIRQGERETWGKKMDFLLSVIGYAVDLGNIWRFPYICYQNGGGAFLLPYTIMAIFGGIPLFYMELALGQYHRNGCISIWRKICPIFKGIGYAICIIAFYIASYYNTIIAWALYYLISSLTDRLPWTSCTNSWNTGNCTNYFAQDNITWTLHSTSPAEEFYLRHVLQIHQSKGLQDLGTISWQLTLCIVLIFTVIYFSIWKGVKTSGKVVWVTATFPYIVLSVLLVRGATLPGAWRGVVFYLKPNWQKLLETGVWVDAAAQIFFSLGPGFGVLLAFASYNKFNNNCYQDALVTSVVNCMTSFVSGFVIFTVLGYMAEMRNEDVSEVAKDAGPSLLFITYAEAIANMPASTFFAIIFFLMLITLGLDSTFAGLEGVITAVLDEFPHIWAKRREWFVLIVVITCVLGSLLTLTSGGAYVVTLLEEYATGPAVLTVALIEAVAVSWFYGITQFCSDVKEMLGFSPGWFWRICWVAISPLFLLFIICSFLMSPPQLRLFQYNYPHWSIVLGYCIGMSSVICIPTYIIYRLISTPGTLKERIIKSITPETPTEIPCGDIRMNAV
Method: Inhibition of [^3H]-Serotonin Uptake in Rat Whole Brain Synaptosomes
This assay is used a biochemical screen for compounds which block serotonin (5 HT) uptake, which may be useful as antidepressants and for the treatment of personality disorders such as obsessive compulsive disorder.
as §1, §2
Aerate for 60 minutes with 95% O2/5% CO2, check pH (7.4±0.1). 2. 0.32 M Sucrose: 21.9 g of sucrose, bring to 200 ml. 3. Serotonin creatinine SO4 is obtained from Sigma Chemical Co. A 0.1 mM stock solution is made up in 0.01N HCl. This is used to dilute the specific activity of radiolabeled 5 HT. 4. 5-[1,2-^3H(N)]-Hydroxytryptamine creatinine sulfate (Serotonin), specific activity 20-30 Ci/mmol is obtained from New England Nuclear. The final desired concentration of ^3H-5 HT in the assay is 50 nM. The dilution factor is 0.8. Therefore, the KHBB is made up to contain 62.5 nM [^3H]--5 HT. Add to 100 ml of KHBB.
as §3, with “mM” for “mM stock”, “in” for “in a”
as §4, with “Whole” for “Either whole”, “cerebella” for “cerebella or hypothalamus”, “The” for “TH”, “0° -” for “0°”
• 800 µl KHBB + [^3H]-5 HT. • 20 µl Vehicle or appropriate drug concentration • 200 µl Tissue suspension
(§5) Tubes are incubated at 37°C under a 95% O2/5% CO2 atmosphere for 5 minutes. For each assay, 3 tubes are incubated with 20 µl of vehicle at 0°C in an ice bath. After incubation all tubes are immediately centrifuged at 4000 g for 10 minutes. The supernatant fluid is aspirated and the pellets dissolved by adding 1 ml of solubilizer (Triton® X-100 + 50% EtOH, 1:4 v/v). The tubes are vigorously shaken, decanted into scintillation vials, and counted in 10 ml of Liquicint® scintillation counting cocktail. Active uptake is the difference between cpm at 37°C and 0°C. The percent inhibition at each drug concentration is the mean of three determinations. IC50 values are derived from log-probit analysis.

[3] = molecular target: T3, dopamine (DA) uptake (Rattus norvegicus, UniProt P23977); assay: Inhibition of 3H-dopamine uptake in rat striatal synaptosomes; details: head says whole brain synaptosomes, method uses striatal synaptosomes, 3H-DA 50 nM
T3 construct: Corpora striata are rapidly removed, weighed and homogenized in 9 volumes of ice-cold 0.32 M sucrose; from tissue; host or cells: rat corpora striata, crude synaptosomal supernatant (S1)
T3 sequence (P23977 whole entry): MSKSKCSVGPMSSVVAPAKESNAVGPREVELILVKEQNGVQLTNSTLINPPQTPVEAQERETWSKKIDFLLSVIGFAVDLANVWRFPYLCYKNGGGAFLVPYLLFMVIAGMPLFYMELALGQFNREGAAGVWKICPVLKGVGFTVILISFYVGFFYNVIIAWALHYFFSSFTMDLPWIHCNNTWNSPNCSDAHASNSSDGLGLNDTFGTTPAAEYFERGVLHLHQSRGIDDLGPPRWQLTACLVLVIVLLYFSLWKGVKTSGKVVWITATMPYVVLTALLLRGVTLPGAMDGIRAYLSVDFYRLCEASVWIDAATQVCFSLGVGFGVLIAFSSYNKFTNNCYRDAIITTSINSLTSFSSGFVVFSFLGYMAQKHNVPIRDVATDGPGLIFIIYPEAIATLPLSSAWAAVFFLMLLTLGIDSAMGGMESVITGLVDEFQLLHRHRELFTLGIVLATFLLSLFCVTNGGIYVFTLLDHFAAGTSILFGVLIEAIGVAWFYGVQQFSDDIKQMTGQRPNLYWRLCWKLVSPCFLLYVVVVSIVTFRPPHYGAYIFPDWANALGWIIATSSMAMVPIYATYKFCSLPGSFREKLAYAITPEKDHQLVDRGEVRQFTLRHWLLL
Method: Inhibition of ^3H-Dopamine Uptake in Rat Striatal Synaptosomes
this assay is used to show differential drug effects on dopamine uptake versus nerepppinephrine uptake and to identify therapeutic agents for diseases where the potentiation of dopaminergic activity may be helpful (e.g. Parkinson's Disease).
as §1
1. Krebs-Henseleit Bicarbonate Buffer, pH 7.4 (KHBB): Make a 1 liter batch containing the following salts:
Aerate for 60 minutes with 95% O2/5% CO2, check pH (7.4±0.1). 2. 0.32 M Sucrose: 21.9 g of sucrose, bring to 200 ml. 3. Dopamine HCl is obtained from Sigma Chemical Co. A 0.1 mM stock solution is made up in 0.01N HCI. This is used to dilute the specific activity of radiolabeled 5 HT. 4. 3,4-[8-^3H(N)]-Dihydroxyphenylethylamine (Dopamine), specific activity 4-34 Ci/mmol is obtained from New England Nuclear. The final desired concentration of ^3H-DA in the assay is 50 nM. The dilution factor is 0.9. Therefore, the KHBB is made up to contain 55.5 nM [^3H]-5 DA. Add to 100 ml of KHBB.
as §3, with “1mM” for “1 mM”
as §4, with “Corpora striata are rapidly removed,” for “Either whole brain minus cerebella or hypothalamus is”, “The” for “TH”, “0°-” for “0°”
• 900 µl KHBB + [^3H]-DA. • 20 µl Vehicle or appropriate drug concentration • 100 µl Tissue suspension
as §5, with “Liquiscint®” for “Liquicint®”

Row | SMILES | Whole brain synaptosomes % inhibition at 3.16 µm NE [1] [%] | Whole brain synaptosomes % inhibition at 3.16 µm 5HT [2] [%] | Whole brain synaptosomes % inhibition at 3.16 µm DA [3] [%]
1 | O=C(O)/C=C\C(=O)O.O=C1c2ccccc2C(=O)N1CCCN1CCC(N2C(c3ccc(Cl)cc3)c3ccccc3S2(=O)=O)CC1 (stereo not drawn) [2-(3-{4-[3-(4-Chlorophenyl)-1,1-dioxo-3H-benzo[d]isothiazol-2-yl]piperidin-1-yl}propyl)-isoindol-1,3-dione maleate] | 28.37 | 29.02 | 57.36
2 | COc1cc(C(C)=O)ccc1OCCCN1CCC(N2C(c3ccc(Cl)cc3)c3ccccc3S2(=O)=O)CC1 (stereo not drawn) [1-[4-(3-{4-[3-(4-Chlorophenyl)-1,1-dioxo-3H-benzo[d]isothiazol-2-yl]-1-piperidin-1-yl}-propoxy)-3-methoxyphenyl]-ethanone maleate] | 55.23 | 48.78 | 67.94
3 | Cl.O=S1(=O)c2ccccc2C(c2ccc(F)cc2)N1C1CCNCC1 (stereo not drawn) [3-(4-Fluorophenyl)-2-(4-piperidinyl)-2,3-dihydrobenzo[d]isothiazole-1,1-dioxide hydrochloride] | 25.02 | 37.92 | 30.34
4 | O=C(O)/C=C\C(=O)O.O=S1(=O)c2ccccc2C(c2ccc(Cl)cc2)N1C1CCN(CCO)CC1 (stereo not drawn) [2-{4-[3-(4-Chlorophenyl)-1,1-dioxo-3H-benzo[d]isothiazol-2-yl]-piperidin-1-yl}-ethanol maleate] | 8.71 | 3.68 | 18.71
